Assay: Inhibition of binding of [125I]-CCK-8 to the cholecystokinin type B receptor

| Structure (SMILES) | IC50 |
| --- | --- |
| CN1C(=O)C(NC(=O)Nc2ccc(Cl)c(Cl)c2)N=C(c2ccccc2)c2ccccc21 (stereo not drawn) [1-(3,4-Dichloro-phenyl)-3-(1-methyl-2-oxo-5-phenyl-2,3-dihydro-1H-benzo[e][1,4]diazepin-3-yl)-urea] | 67 nM |
| Cc1ccc(NC(=O)NC2N=C(c3ccccc3)c3ccccc3N(C)C2=O)cc1C (stereo not drawn) [1-(3,4-Dimethyl-phenyl)-3-(1-methyl-2-oxo-5-phenyl-2,3-dihydro-1H-benzo[e][1,4]diazepin-3-yl)-urea] | 22 nM |
| COc1cc(NC(=O)NC2N=C(c3ccccc3)c3ccccc3N(C)C2=O)cc(OC)c1 (stereo not drawn) [1-(3,5-Dimethoxy-phenyl)-3-(1-methyl-2-oxo-5-phenyl-2,3-dihydro-1H-benzo[e][1,4]diazepin-3-yl)-urea] | 2300 nM |
| Cc1cc(C)cc(NC(=O)NC2N=C(c3ccccc3)c3ccccc3N(C)C2=O)c1 (stereo not drawn) [1-(3,5-Dimethyl-phenyl)-3-(1-methyl-2-oxo-5-phenyl-2,3-dihydro-1H-benzo[e][1,4]diazepin-3-yl)-urea] | 267 nM |
| CC(=O)c1cccc(NC(=O)NC2N=C(c3ccccc3)c3ccccc3N(C)C2=O)c1 (stereo not drawn) [1-(3-Acetyl-phenyl)-3-(1-methyl-2-oxo-5-phenyl-2,3-dihydro-1H-benzo[e][1,4]diazepin-3-yl)-urea] | 4.8 nM |
| CN1C(=O)C(NC(=O)Nc2cccc(Br)c2)N=C(c2ccccc2)c2ccccc21 (stereo not drawn) [1-(3-Bromo-phenyl)-3-(1-methyl-2-oxo-5-phenyl-2,3-dihydro-1H-benzo[e][1,4]diazepin-3-yl)-urea] | 5 nM |
| CN1C(=O)C(NC(=O)Nc2cccc(Cl)c2)N=C(c2ccccc2)c2ccccc21 (stereo not drawn) [1-(3-Chloro-phenyl)-3-(1-methyl-2-oxo-5-phenyl-2,3-dihydro-1H-benzo[e][1,4]diazepin-3-yl)-urea] | 9.8 nM |
| CN1C(=O)C(NC(=O)Nc2cccc(C#N)c2)N=C(c2ccccc2)c2ccccc21 (stereo not drawn) [1-(3-Cyano-phenyl)-3-(1-methyl-2-oxo-5-phenyl-2,3-dihydro-1H-benzo[e][1,4]diazepin-3-yl)-urea] | 27 nM |
| C#Cc1cccc(NC(=O)NC2N=C(c3ccccc3)c3ccccc3N(C)C2=O)c1 (stereo not drawn) [1-(3-Ethynyl-phenyl)-3-(1-methyl-2-oxo-5-phenyl-2,3-dihydro-1H-benzo[e][1,4]diazepin-3-yl)-urea] | 22 nM |
| CN1C(=O)C(NC(=O)Nc2cccc(F)c2)N=C(c2ccccc2)c2ccccc21 (stereo not drawn) [1-(3-Fluoro-phenyl)-3-(1-methyl-2-oxo-5-phenyl-2,3-dihydro-1H-benzo[e][1,4]diazepin-3-yl)-urea] | 54 nM |
| COc1cccc(NC(=O)NC2N=C(c3ccccc3)c3ccccc3N(C)C2=O)c1 (stereo not drawn) [1-(3-Methoxy-phenyl)-3-(1-methyl-2-oxo-5-phenyl-2,3-dihydro-1H-benzo[e][1,4]diazepin-3-yl)-urea] | 3 nM |
| COc1cccc(NC(=O)NC2N=C(c3ccccc3)c3ccccc3N(CC(=O)N3CCCC3)C2=O)c1 (stereo not drawn) [1-(3-Methoxy-phenyl)-3-[2-oxo-1-(2-oxo-2-pyrrolidin-1-yl-ethyl)-5-phenyl-2,3-dihydro-1H-benzo[e][1,4]diazepin-3-yl]-urea] | 0.24 nM |
| COc1cccc(NC(=O)NC2N=C(c3ccccc3)c3ccccc3N(CC(=O)N3CCN(C)CC3)C2=O)c1 (stereo not drawn) [1-(3-Methoxy-phenyl)-3-{1-[2-(4-methyl-piperazin-1-yl)-2-oxo-ethyl]-2-oxo-5-phenyl-2,3-dihydro-1H-benzo[e][1,4]diazepin-3-yl}-urea] | 4.4 nM |
| CN1C(=O)C(NC(=O)Nc2ccc(Br)cc2)N=C(c2ccccc2)c2ccccc21 (stereo not drawn) [1-(4-Bromo-phenyl)-3-(1-methyl-2-oxo-5-phenyl-2,3-dihydro-1H-benzo[e][1,4]diazepin-3-yl)-urea] | 48 nM |
| O=C(Nc1ccc(Cl)cc1)NC1N=C(c2ccccc2)c2ccccc2NC1=O (stereo not drawn) [1-(4-Chloro-phenyl)-3-(2-oxo-5-phenyl-2,3-dihydro-1H-benzo[e][1,4]diazepin-3-yl)-urea] | 270 nM |
| CN1C(=O)[C@H](NC(=O)Nc2ccc(Cl)cc2)N=C(c2ccccc2)c2ccccc21 [1-(4-Chloro-phenyl)-3-((R)-1-methyl-2-oxo-5-phenyl-2,3-dihydro-1H-benzo[e][1,4]diazepin-3-yl)-urea] | 20 nM |
| CN1C(=O)[C@@H](NC(=O)Nc2ccc(Cl)cc2)N=C(c2ccccc2)c2ccccc21 [1-(4-Chloro-phenyl)-3-((S)-1-methyl-2-oxo-5-phenyl-2,3-dihydro-1H-benzo[e][1,4]diazepin-3-yl)-urea] | 1100 nM |
| O=C(Nc1ccc(Cl)cc1)NC1N=C(c2ccccc2)c2ccccc2N(C[C@@H](O)CO)C1=O (stereo partly drawn) [1-(4-Chloro-phenyl)-3-[1-(2,3-dihydroxy-propyl)-2-oxo-5-phenyl-2,3-dihydro-1H-benzo[e][1,4]diazepin-3-yl]-urea] | 104 nM |
| O=C(Nc1ccc(Cl)cc1)NC1N=C(c2ccccc2)c2ccccc2N(C[C@@H](O)CN2CCCC2)C1=O (stereo partly drawn) [1-(4-Chloro-phenyl)-3-[1-(2-hydroxy-3-pyrrolidin-1-yl-propyl)-2-oxo-5-phenyl-2,3-dihydro-1H-benzo[e][1,4]diazepin-3-yl]-urea] | 300 nM |

| Structure (SMILES) | IC50 |
| --- | --- |
| CCN(CC)C[C@H](O)CN1C(=O)C(NC(=O)Nc2ccc(Cl)cc2)N=C(c2ccccc2)c2ccccc21 (stereo partly drawn) [1-(4-Chloro-phenyl)-3-[1-(3-diethylamino-2-hydroxy-propyl)-2-oxo-5-phenyl-2,3-dihydro-1H-benzo[e][1,4]diazepin-3-yl]-urea] | 410 nM |
| O=C(Nc1ccc(Cl)cc1)NC1N=C(c2ccccc2)c2ccccc2N(Cc2nnn[nH]2)C1=O (stereo not drawn) [1-(4-Chloro-phenyl)-3-[2-oxo-5-phenyl-1-(1H-tetrazol-5-ylmethyl)-2,3-dihydro-1H-benzo[e][1,4]diazepin-3-yl]-urea] | 490 nM |
| CN1CCN(C(=O)CN2C(=O)C(NC(=O)Nc3ccc(Cl)cc3)N=C(c3ccccc3)c3ccccc32)CC1 (stereo not drawn) [1-(4-Chloro-phenyl)-3-{1-[2-(4-methyl-piperazin-1-yl)-2-oxo-ethyl]-2-oxo-5-phenyl-2,3-dihydro-1H-benzo[e][1,4]diazepin-3-yl}-urea] | 0.8 nM |
| CN1C(=O)C(NC(=O)Nc2ccc(F)cc2)N=C(c2ccccc2)c2ccccc21 (stereo not drawn) [1-(4-Fluoro-phenyl)-3-(1-methyl-2-oxo-5-phenyl-2,3-dihydro-1H-benzo[e][1,4]diazepin-3-yl)-urea] | 66 nM |
| COc1ccc(NC(=O)NC2N=C(c3ccccc3)c3ccccc3N(C)C2=O)cc1 (stereo not drawn) [1-(4-Methoxy-phenyl)-3-(1-methyl-2-oxo-5-phenyl-2,3-dihydro-1H-benzo[e][1,4]diazepin-3-yl)-urea] | 26 nM |
| CN1C(=O)C(NC(=O)Nc2ccc(N)nc2)N=C(c2ccccc2)c2ccccc21 (stereo not drawn) [1-(6-Amino-pyridin-3-yl)-3-(1-methyl-2-oxo-5-phenyl-2,3-dihydro-1H-benzo[e][1,4]diazepin-3-yl)-urea] | 500 nM |
| CN1C(=O)C(NC(=O)Nc2ccc(Cl)nc2)N=C(c2ccccc2)c2ccccc21 (stereo not drawn) [1-(6-Chloro-pyridin-3-yl)-3-(1-methyl-2-oxo-5-phenyl-2,3-dihydro-1H-benzo[e][1,4]diazepin-3-yl)-urea] | 46 nM |
| COc1ccc(NC(=O)NC2N=C(c3ccccc3)c3ccccc3N(C)C2=O)cn1 (stereo not drawn) [1-(6-Methoxy-pyridin-3-yl)-3-(1-methyl-2-oxo-5-phenyl-2,3-dihydro-1H-benzo[e][1,4]diazepin-3-yl)-urea] | 460 nM |
| CN1C(=O)C(NC(=O)Nc2ccc3c(c2)OCO3)N=C(c2ccccc2)c2ccccc21 (stereo not drawn) [1-Benzo[1,3]dioxol-5-yl-3-(1-methyl-2-oxo-5-phenyl-2,3-dihydro-1H-benzo[e][1,4]diazepin-3-yl)-urea] | 26 nM |
| CN1C(=O)C(NC(=O)NCc2ccccc2)N=C(c2ccccc2)c2ccccc21 (stereo not drawn) [1-Benzyl-3-(1-methyl-2-oxo-5-phenyl-2,3-dihydro-1H-benzo[e][1,4]diazepin-3-yl)-urea] | 860 nM |
| CN1C(=O)C(NC(=O)Nc2cccc(-c3ccccc3)c2)N=C(c2ccccc2)c2ccccc21 (stereo not drawn) [1-Biphenyl-3-yl-3-(1-methyl-2-oxo-5-phenyl-2,3-dihydro-1H-benzo[e][1,4]diazepin-3-yl)-urea] | 112 nM |
| CN1C(=O)C(NC(=O)NC2CCCCC2)N=C(c2ccccc2)c2ccccc21 (stereo not drawn) [1-Cyclohexyl-3-(1-methyl-2-oxo-5-phenyl-2,3-dihydro-1H-benzo[e][1,4]diazepin-3-yl)-urea] | 3000 nM |
| CN1C(=O)C(NC(=O)Nc2ccc3c(c2)CCC3)N=C(c2ccccc2)c2ccccc21 (stereo not drawn) [1-Indan-5-yl-3-(1-methyl-2-oxo-5-phenyl-2,3-dihydro-1H-benzo[e][1,4]diazepin-3-yl)-urea] | 2.7 nM |
| Cc1cccc(NC(=O)NC2N=C(c3ccccc3)c3ccccc3N(Cc3ncc[nH]3)C2=O)c1 (stereo not drawn) [1-[1-(1H-Imidazol-2-ylmethyl)-2-oxo-5-phenyl-2,3-dihydro-1H-benzo[e][1,4]diazepin-3-yl]-3-m-tolyl-urea] | 59 nM |
| Cc1cccc(NC(=O)NC2N=C(c3ccccc3)c3ccccc3N(Cc3cnc[nH]3)C2=O)c1 (stereo not drawn) [1-[1-(1H-Imidazol-4-ylmethyl)-2-oxo-5-phenyl-2,3-dihydro-1H-benzo[e][1,4]diazepin-3-yl]-3-m-tolyl-urea] | 7.9 nM |
| COc1cccc(NC(=O)NC2N=C(c3ccccc3)c3ccccc3N(CCN(C)C)C2=O)c1 (stereo not drawn) [1-[1-(2-Dimethylamino-ethyl)-2-oxo-5-phenyl-2,3-dihydro-1H-benzo[e][1,4]diazepin-3-yl]-3-(3-methoxy-phenyl)-urea] | 192 nM |
| Cc1cccc(NC(=O)NC2N=C(c3ccccc3)c3ccccc3N(CCN(C)C)C2=O)c1 (stereo not drawn) [1-[1-(2-Dimethylamino-ethyl)-2-oxo-5-phenyl-2,3-dihydro-1H-benzo[e][1,4]diazepin-3-yl]-3-m-tolyl-urea] | 26 nM |
| Cc1cccc(NC(=O)NC2N=C(c3ccccc3)c3ccccc3N(CCO)C2=O)c1 (stereo not drawn) [1-[1-(2-Hydroxy-ethyl)-2-oxo-5-phenyl-2,3-dihydro-1H-benzo[e][1,4]diazepin-3-yl]-3-m-tolyl-urea] | 44 nM |
| O=C(Nc1ccc(Cl)cc1)NC1N=C(c2ccccc2)c2ccccc2N(C[C@@H](O)CCl)C1=O (stereo partly drawn) [1-[1-(3-Chloro-2-hydroxy-propyl)-2-oxo-5-phenyl-2,3-dihydro-1H-benzo[e][1,4]diazepin-3-yl]-3-(4-chloro-phenyl)-urea] | 6 nM |

Reference: BindingDB's records for doi:10.1021/jm00078a018 (Merck Research Laboratories, 1994)
